Reference: patent US20250114362A1, “METHODS AND COMPOSITIONS FOR TREATMENT OF CUTANEOUS PROLIFERATIVE DISORDERS AND OTHER SKIN CONDITIONS” (ASYMMETRIC THERAPEUTICS, LLC, priority 2022, published 2025)
Values joined by “and” are separate entries in the source; they are usually repeats but may differ in a detail not shown here. Equal values may be shown once.

Legend:
HaCaT cells = test: M5 cocktail psoriasis-like HaCaT keratinocyte model, live and dead cell numbers by MultiTox-Glo Multiplex Cytotoxicity Assay; details: for Cell Counts, 0 hours, Dead / Cell Counts, 0 hours, Live / Cell Ratios, 0 hours, Dead / Cell Ratios, 0 hours, Total: 0 hours (baseline); for Cell Counts, 0 hours, Dead / Cell Counts, 0 hours, Live / Cell Counts, 48 hours, Dead / Cell Counts, 48 hours, Total / Cell Counts, 72 hours, Dead / Cell Counts, 72 hours, Total: M5 cocktail, ± standard deviation; for Cell Ratios, 0 hours, Dead / Cell Ratios, 0 hours, Total / Cell Ratios, 48 hours, Dead / Cell Ratios, 48 hours, Total / Cell Ratios, 72 hours, Dead / Cell Ratios, 72 hours, Total: relative to 9177 live cells at zero hours
Method: Immortalized human keratinocytes (HaCaT cells) purchased from AddexBio (San Diego, CA) were maintained in vitro in Dulbecco's modified Eagle's medium (DMEM) supplemented with 10% Fetal Bovine Serum (FBS) and antibiotics (100 U/mL penicillin and […] streptomycin) and cultured in an incubator with 5% CO2 at 37° C.
HaCaT cells were seeded at approximately 50% density (1×10^4 cells/well) and after 16 h the medium was replaced with 50 μL of pre-treatment medium containing different concentrations of allopurinol (0, 0.5, or 3 mM) or methotrexate (1 μM) and placed back into the incubator. Treatment media was prepared using standard media containing vehicle control (PBS) or M5 cocktail.
Other HaCaT cells were incubated in vitro for 72 hours in the presence of a M5 composition that also included 1.0 μM methotrexate, 0.5 mM allopurinol, 3.0 mM allopurinol, 0.5 mM oxypurinol, or 3.0 mM oxypurinol.
The number of live and dead cells were determined by the MultiTox-Glo Multiplex Cytotoxicity Assay (Promega, Madison WI) according to the manufacturer's protocol. A dilution series of cells was used to generate a standard curve for calculation of cell number in each well. The total number of cells was the sum of the live and dead cells.

Ki67 = test: MatTek PSE culture system, Ki67 level by PCR; assay type: cell-based, human; details: for Relative Ki67 Level: Day 6, normalized to control at Day 0 = 1.0; for Relative Expression Levels, Ki67: after two days of treatment
Method: The level of Ki67 in the MatTek tissue culture system was also determined. Ki67 is a nuclear protein and a replication marker. The level of Ki67 was determined by polymerase chain reaction (PCR) analysis with standard protocols. The relative levels are normalized with respect to the measured Ki67 level of the control at Day 0, which is adjusted to 1.0.
(§1) Other markers of cell proliferation were also measured, namely (protein p21), and four markers of inflammatory signaling (IL17A, IL23A, TNF-α, and transforming growth factor beta (TGF-β)) in the MatTek PSE culture system after two days of treatment were also determined. Ki67 is a nuclear protein and a replication marker. The marker levels were determined by isolating total RNA by a Promega SV96 Total RNA Isolation Vacuum System (Promega, Madison, WI) according to the manufacturer's instructions. The total RNA was reverse transcribed using an ABI High Capacity cDNA reverse transcription kit (Applied Biosystems, Foster City, CA). Quantitative real-time polymerase chain reaction (qPCR) was performed with the use of a SYBR Green PCR Master Mix (Applied Biosystems) according to the manufacturer's protocol and amplified on a StepOnePlus Real-Time PCR System.

p21 = test: MatTek PSE culture system, p21 mRNA by qPCR; assay type: cell-based, human; details: after two days of treatment
Method: as §1

IL17A = test: MatTek PSE culture system, IL17A mRNA by qPCR; assay type: cell-based, human; details: after two days of treatment
Method: as §1

IL23A = test: MatTek PSE culture system, IL23A mRNA by qPCR; assay type: cell-based, human; details: after two days of treatment
Method: as §1

TNF-α = test: MatTek PSE culture system, TNF-α mRNA by qPCR; assay type: cell-based, human; details: after two days of treatment
Method: as §1

TGF-β = test: MatTek PSE culture system, TGF-β mRNA by qPCR; assay type: cell-based, human; details: after two days of treatment
Method: as §1

p21/Ki67 = test: MatTek PSE culture system, ratio of p21 to Ki67 mRNA levels; assay type: cell-based, human; details: after two days of treatment; treatment compositions of Table 5
Method: Ki67 is a replication marker for cells and the lower the value, the lower the replication rate. P21 is a protein which is a marker for the inhibition of cell proliferation. Thus, an increased ratio of P21/Ki67 indicates decreased cell replication. FIG. 9 illustrates this ratio under several conditions as described in Example 2.
as §1
To highlight effects on cell proliferation, the ratio of p21 to Ki67 mRNA levels were calculated, with the results being shown in FIG. 9.

psoriasis [1] = details: Viglioglia et al. 1970; cited from earlier work
psoriasis [2] = details: oral administration; double-blind cross-over study, Feuerman et al. 1973; cited from earlier work
hand-foot syndrome = details: topical; prevention of hand-foot syndrome; trial by Rodemer; cited from earlier work
[3] = test system: MatTek human PSE culture system (SOR-300-FT); test: MatTek human PSE culture system, tissue layer thickness and histology
Excerpt: The thickness of each of the three tissue layers of skin was monitored and measured after two days and after six days of exposure to the treatment medium in a blinded fashion by a board-certified and nationally respected pathologist.

With Oc1ncnc2[nH]ncc12 [allopurinol] the “Cell Counts, 0 hours, Dead” value (HaCaT cells; 0.5 mM) was 801 ± 19, the “Cell Counts, 0 hours, Live” value (HaCaT cells; 0.5 mM) was 9177 ± 90 and the “Cell Ratios, 0 hours, Dead” value (HaCaT cells; 0.5 mM) was 0.087. For the same compound, the “Cell Ratios, 0 hours, Total” value (HaCaT cells; 0.5 mM) was 1.087, the “Cell Counts, 48 hours, Dead” value (HaCaT cells; 0.5 mM) was 2319 ± 141 and the “Cell Counts, 48 hours, Total” value (HaCaT cells; 0.5 mM) was 11705 ± 161. The “Cell Ratios, 48 hours, Dead” value (HaCaT cells; 0.5 mM) was 0.253, the “Cell Ratios, 48 hours, Total” value (HaCaT cells; 0.5 mM) was 1.275 and the “Cell Counts, 72 hours, Dead” value (HaCaT cells; 0.5 mM) was 4024 ± 166. For the same compound, the “Cell Counts, 72 hours, Total” value (HaCaT cells; 0.5 mM) was 13428 ± 216, the “Cell Ratios, 72 hours, Dead” value (HaCaT cells; 0.5 mM) was 0.44 and 0.438 and the “Cell Ratios, 72 hours, Total” value (HaCaT cells; 0.5 mM) was 1.46 and 1.463. For the same compound, the “Cell Counts, 0 hours, Dead” value (HaCaT cells; 3.0 mM) was 801 ± 19, the “Cell Counts, 0 hours, Live” value (HaCaT cells; 3.0 mM) was 9177 ± 90 and the “Cell Ratios, 0 hours, Dead” value (HaCaT cells; 3.0 mM) was 0.087. For the same compound, the “Cell Ratios, 0 hours, Total” value (HaCaT cells; 3.0 mM) was 1.087, the “Cell Counts, 48 hours, Dead” value (HaCaT cells; 3.0 mM) was 1275 ± 117 and the “Cell Counts, 48 hours, Total” value (HaCaT cells; 3.0 mM) was 9038 ± 176. The “Cell Ratios, 48 hours, Dead” value (HaCaT cells; 3.0 mM) was 0.139, the “Cell Ratios, 48 hours, Total” value (HaCaT cells; 3.0 mM) was 0.985 and the “Cell Counts, 72 hours, Dead” value (HaCaT cells; 3.0 mM) was 2004 ± 168. The “Cell Counts, 72 hours, Total” value (HaCaT cells; 3.0 mM) was 9367 ± 280, the “Cell Ratios, 72 hours, Dead” value (HaCaT cells; 3.0 mM) was 0.22 and 0.218 and the “Cell Ratios, 72 hours, Total” value (HaCaT cells; 3.0 mM) was 1.02 and 1.021. For the same compound, the “Relative Ki67 Level” value (Ki67; 0.5 mM) was 3.18, the “Relative Expression Levels, Ki67” value (Ki67; 0.5 mM) was 0.27 ± 0.01 and the “Relative Ki67 Level” value (Ki67; 3 mM) was 0.96. The “Relative Expression Levels, Ki67” value (Ki67; 3 mM) was 0.42 ± 0.09, the “Relative Expression Levels, p21” value (p21; 0.5 mM) was 1.27 ± 0.10 and the “Relative Expression Levels, p21” value (p21; 3 mM) was 1.40 ± 0.17. For the same compound, the “Relative Expression Levels, IL17A” value (IL17A; 0.5 mM) was 0.21 ± 0.07, the “Relative Expression Levels, IL17A” value (IL17A; 3 mM) was 0.09 ± 0.04 and the “Relative Expression Levels, IL23A” value (IL23A; 0.5 mM) was 0.95 ± 0.20. The “Relative Expression Levels, IL23A” value (IL23A; 3 mM) was 0.66 ± 0.17, the “Relative Expression Levels, TNF-α” value (TNF-α; 0.5 mM) was 0.75 ± 0.13 and the “Relative Expression Levels, TNF-α” value (TNF-α; 3 mM) was 0.82 ± 0.19. For the same compound, the “Relative Expression Levels, TGF-β” value (TGF-β; 0.5 mM) was 0.90 ± 0.09, the “Relative Expression Levels, TGF-β” value (TGF-β; 3 mM) was 0.60 ± 0.12 and the “p21/Ki67 ratio (mRNA levels)” value (p21/Ki67) was “markedly increased”. The “cases with excellent results” value (psoriasis [1]) was 50%, the “cases with good results” value (psoriasis [1]) was 34% and the “cases with moderate results” value (psoriasis [1]) was 16%. The “improvement in psoriasis versus placebo” value (psoriasis [2]) was “no improvement over a placebo”, the clinical efficacy endpoint (hand-foot syndrome) was “did not meet its clinical efficacy endpoint” and the “Layer Thickness, Dermis” value ([3]; 0.5 mM, 2 days) was 0.4 mm. For the same compound, the “Layer Thickness, Epidermis” value ([3]; 0.5 mM, 2 days) was 0.1 mm, the “Layer Thickness, Stratum Corneum” value ([3]; 0.5 mM, 2 days) was 0.05 mm and the “Layer Thickness, Dermis” value ([3]; 0.5 mM, 6 days) was 0.25 mm. The “Layer Thickness, Epidermis” value ([3]; 0.5 mM, 6 days) was 0.1 mm, the “Layer Thickness, Stratum Corneum” value ([3]; 0.5 mM, 6 days) was 0.05 mm and the “increase in dermis layer thickness from treatment for 2 days to 6 days” value ([3]; 3.0 mM allopurinol alone) was 1.4 fold. The “Layer Thickness, Dermis” value ([3]; 3 mM, 2 days) was 0.25 mm, the “Layer Thickness, Epidermis” value ([3]; 3 mM, 2 days) was 0.1 mm and the “Layer Thickness, Stratum Corneum” value ([3]; 3 mM, 2 days) was 0.02 mm. The “Layer Thickness, Dermis” value ([3]; 3 mM, 6 days) was 0.35 mm, the “Layer Thickness, Epidermis” value ([3]; 3 mM, 6 days) was 0.15 mm and the “Layer Thickness, Stratum Corneum” value ([3]; 3 mM, 6 days) was 0.1 mm.

For N[C@@H](CCC(=O)N[C@@H](CS)C(=O)NCC(=O)O)C(=O)O [glutathione], the “Relative Expression Levels, Ki67” value (Ki67; 3 mM) was 0.27 ± 0.01, the “Relative Expression Levels, p21” value (p21; 3 mM) was 1.35 ± 0.06 and the “Relative Expression Levels, IL17A” value (IL17A; 3 mM) was 0.04 ± 0.02. The “Relative Expression Levels, IL23A” value (IL23A; 3 mM) was 0.79 ± 0.14, the “Relative Expression Levels, TNF-α” value (TNF-α; 3 mM) was 0.29 ± 0.07 and the “Relative Expression Levels, TGF-β” value (TGF-β; 3 mM) was 0.77 ± 0.10. For the same compound, the “p21/Ki67 ratio (mRNA levels)” value (p21/Ki67) was “markedly increased”, the “Layer Thickness, Dermis” value ([3]; 3 mM, 2 days) was 0.3 mm and the “Layer Thickness, Epidermis” value ([3]; 3 mM, 2 days) was 0.2 mm. The “Layer Thickness, Stratum Corneum” value ([3]; 3 mM, 2 days) was 0.15 mm.
